Columns and labels:
[1] = test system: test mice (6-8-week-old athymic nu/nu on a BALB/c background); assay: Quantity of anti-E2 antibody (ELISA) in blood of mice injected with vaccine; type: in vivo; details: when used together with alum; E2 protein antigen
Experimental: 5 μg of E2 protein antigen obtained in Reference Example was dissolved in 150 μl of PBS (pH 7.2), and 7 μg of the peptide of sequence of SEQ ID NO: 1 synthesized using a conventional peptide synthesis method (Houghten, R. A. et al., Nature, 354, 84(1991)) was added thereto together with alum to obtain a vaccine.
The vaccine thus obtained was injected subcutaneously into test mice (6-8-week-old athymic nu/nu on a BALB/c background). After 5 weeks, a booster injection was carried out, and after another 2 weeks, blood samples were taken from the mice.
For comparison, three different vaccine compositions were also tested as above. These comparative controls were: a vaccine containing E2 protein and alum; a vaccine containing E2 protein and the peptide of sequence of SEQ ID NO: 1; and a vaccine containing alum and the peptide of sequence of SEQ ID NO: 1. The peptides used in this Example include the D-Met residue of SEQ ID NO: 1 having CONH2 substituted for the carboxyl group. […]
Thereafter, 80 μl/well of color former (ABSI (Chemicon®)) were added to each of the 96-wells of the plate, and they were incubated at room temperature for 20 minutes. After the reaction, the O.D. of each well was determined at the wavelength of 405 nm with an ELISA reader.

[2] = test system: monocytes, B-lymphocytes, and neutrophils; details: cited from earlier work
[3] = test system: human B-lymphocyte cell line U266; details: cited from earlier work
[4] = test system: specific receptor protein in the cell membrane of the U266 cell line; details: cited from earlier work
[5] = test system: neutrophils; details: stimulated neutrophils; cited from earlier work
[6] = test system: human neutrophils; details: cited from earlier work
[7] = test system: phospholipase C (PLC); details: in B-lymphocytes; cited from earlier work

Substance: Trp Lys Tyr Met Val Met [peptide of SEQ ID NO: 1]
- effect of promoting the vaccination efficiency [1]: remarkable synergistic effect
- activation of monocytes, B-lymphocytes, and neutrophils [2]: activates
- intracellular calcium [Ca2+]I release [3]: induces
- binding with receptor, activation of the cellular signal pathway [4]: binding with a specific receptor protein
- production of active oxygen species [5]: increase
- chemotaxis [6]: induces chemotaxis
- activity of phospholipase C (PLC) [7]: enhances
